Measured values published in paper PMC11116522, “Illuminating the function of the orphan transporter, SLC22A10, in humans and other primates” (Nature Communications, 2024).
Structures can show the parent of a compound that is named as a salt.

What was measured:
[1] = target: T1, squirrel monkey SLC22A10 (552 aa) (Saimiri boliviensis, UniProt A0A2K6SBP5); experiment: radiolabelled uptake in HEK293 Flp-In cells; assay type: cell-based; details: labelled compound; HBSS
T1 construct: full length 552 aa, synthetic cDNA, HEK293 Flp-In cells
T1 sequence (A0A2K6SBP5 1-552): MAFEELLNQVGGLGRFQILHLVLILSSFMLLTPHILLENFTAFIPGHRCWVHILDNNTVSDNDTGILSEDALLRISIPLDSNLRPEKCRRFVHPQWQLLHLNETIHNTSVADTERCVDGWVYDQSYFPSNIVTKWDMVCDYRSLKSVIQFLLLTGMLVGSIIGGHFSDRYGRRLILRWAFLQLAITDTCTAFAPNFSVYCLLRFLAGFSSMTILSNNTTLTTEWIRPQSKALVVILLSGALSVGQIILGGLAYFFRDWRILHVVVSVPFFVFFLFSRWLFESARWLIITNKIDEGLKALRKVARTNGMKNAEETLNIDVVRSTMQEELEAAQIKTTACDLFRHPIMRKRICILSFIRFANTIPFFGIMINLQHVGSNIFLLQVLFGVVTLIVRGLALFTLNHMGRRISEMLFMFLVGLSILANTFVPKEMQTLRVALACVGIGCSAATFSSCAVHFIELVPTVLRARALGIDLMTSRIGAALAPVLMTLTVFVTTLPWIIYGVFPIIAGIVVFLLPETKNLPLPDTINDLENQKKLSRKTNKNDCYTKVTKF

[2] = target: T2, gorilla SLC22A10 (552 aa) (Gorilla gorilla, UniProt G3RG24); experiment: radiolabelled uptake in HEK293 Flp-In cells; assay type: cell-based; details: labelled compound; HBSS
T2 construct: full length 552 aa, synthetic cDNA, HEK293 Flp-In cells

[3] = target: T3, chimpanzee SLC22A10 (533 aa) (Pan troglodytes, UniProt A0A2I3TWY5); experiment: radiolabelled uptake in stable HEK293 Flp-In cells, Michaelis-Menten fit; assay type: cell-based; details: 37 °C, 5 min uptake, HBSS; empty-vector uptake subtracted; labelled compound
T3 sequence (A0A2I3TWY5 1-540): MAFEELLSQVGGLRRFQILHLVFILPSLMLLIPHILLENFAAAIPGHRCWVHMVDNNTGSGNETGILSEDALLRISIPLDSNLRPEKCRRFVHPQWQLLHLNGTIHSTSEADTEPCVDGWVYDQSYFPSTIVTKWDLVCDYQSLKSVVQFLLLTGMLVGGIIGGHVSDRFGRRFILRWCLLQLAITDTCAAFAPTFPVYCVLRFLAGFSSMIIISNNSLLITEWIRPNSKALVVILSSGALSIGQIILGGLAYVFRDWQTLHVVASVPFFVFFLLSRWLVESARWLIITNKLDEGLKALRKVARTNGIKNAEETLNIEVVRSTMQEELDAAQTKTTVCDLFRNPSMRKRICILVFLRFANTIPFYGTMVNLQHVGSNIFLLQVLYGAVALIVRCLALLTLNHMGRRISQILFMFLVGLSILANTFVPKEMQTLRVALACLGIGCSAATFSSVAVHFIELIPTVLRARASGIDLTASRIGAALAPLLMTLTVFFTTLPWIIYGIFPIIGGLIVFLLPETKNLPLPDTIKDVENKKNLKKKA

human SLC22A10 (541 aa) = target: T4, human SLC22A10 (541 aa) (Homo sapiens, UniProt Q63ZE4, P220L); experiment: radiolabelled uptake in transiently transfected HEK293 Flp-In cells; assay type: cell-based; details: labelled compound; HBSS
T4 construct: full length 541 aa, pcDNA3.1(+) or N-terminal eGFP fusion, transient HEK293 Flp-In cells
T4 sequence (Q63ZE4 1-541 P220L): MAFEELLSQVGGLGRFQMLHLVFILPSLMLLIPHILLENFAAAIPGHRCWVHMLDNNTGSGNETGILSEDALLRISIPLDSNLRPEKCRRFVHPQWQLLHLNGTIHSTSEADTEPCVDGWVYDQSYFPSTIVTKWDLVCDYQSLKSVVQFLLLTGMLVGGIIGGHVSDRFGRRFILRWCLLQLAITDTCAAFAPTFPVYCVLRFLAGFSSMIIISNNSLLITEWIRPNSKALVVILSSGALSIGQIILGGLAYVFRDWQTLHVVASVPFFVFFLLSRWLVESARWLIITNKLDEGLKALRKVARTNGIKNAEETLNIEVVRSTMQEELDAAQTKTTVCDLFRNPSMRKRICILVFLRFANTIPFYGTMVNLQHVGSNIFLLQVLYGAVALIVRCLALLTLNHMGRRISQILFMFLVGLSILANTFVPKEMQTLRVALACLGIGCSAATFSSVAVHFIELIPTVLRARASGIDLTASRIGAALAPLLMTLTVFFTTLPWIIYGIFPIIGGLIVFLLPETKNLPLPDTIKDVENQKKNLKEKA

gibbon SLC22A10 (533 aa) = target: T5, gibbon SLC22A10 (533 aa) (Nomascus leucogenys, UniProt G1QWU8); experiment: radiolabelled uptake in HEK293 Flp-In cells; assay type: cell-based; details: labelled compound; HBSS
T5 construct: gene LOC100590002; full length 533 aa isoform, synthetic cDNA, HEK293 Flp-In cells

[4] = target: T6, orangutan SLC22A10 (533 aa) (Pongo abelii, UniProt A0A8I5UWR8); experiment: radiolabelled uptake in HEK293 Flp-In cells; assay type: cell-based; details: labelled compound; HBSS
T6 construct: full length 533 aa isoform, synthetic cDNA, HEK293 Flp-In cells
T6 sequence (A0A8I5UWR8 1-533): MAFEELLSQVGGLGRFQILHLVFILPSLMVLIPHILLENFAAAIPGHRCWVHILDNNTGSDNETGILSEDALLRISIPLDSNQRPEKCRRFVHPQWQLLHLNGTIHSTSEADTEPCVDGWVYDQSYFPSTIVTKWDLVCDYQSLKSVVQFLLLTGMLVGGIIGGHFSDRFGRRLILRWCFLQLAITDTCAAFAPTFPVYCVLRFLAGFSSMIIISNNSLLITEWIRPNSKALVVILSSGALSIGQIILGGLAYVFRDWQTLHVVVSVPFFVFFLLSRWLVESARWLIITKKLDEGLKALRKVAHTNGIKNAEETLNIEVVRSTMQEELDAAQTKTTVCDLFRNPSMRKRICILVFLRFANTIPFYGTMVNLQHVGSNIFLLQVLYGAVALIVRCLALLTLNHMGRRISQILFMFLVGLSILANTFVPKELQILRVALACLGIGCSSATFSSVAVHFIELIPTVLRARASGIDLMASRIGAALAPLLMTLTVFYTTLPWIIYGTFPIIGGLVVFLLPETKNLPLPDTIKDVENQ

[5] = substrate: C[C@]12CC[C@@H]3c4ccc(O)cc4CC[C@H]3[C@@H]1CC[C@@H]2O[C@@H]1O[C@H](C(=O)O)[C@@H](O)[C@H](O)[C@H]1O; experiment: radiolabelled uptake in stable HEK293 Flp-In cells, Michaelis-Menten fit; assay type: cell-based, Pan troglodytes; details: 37 °C, 5 min uptake, HBSS, empty-vector uptake subtracted, labelled compound

T5 sequence (G1QWU8 1-533): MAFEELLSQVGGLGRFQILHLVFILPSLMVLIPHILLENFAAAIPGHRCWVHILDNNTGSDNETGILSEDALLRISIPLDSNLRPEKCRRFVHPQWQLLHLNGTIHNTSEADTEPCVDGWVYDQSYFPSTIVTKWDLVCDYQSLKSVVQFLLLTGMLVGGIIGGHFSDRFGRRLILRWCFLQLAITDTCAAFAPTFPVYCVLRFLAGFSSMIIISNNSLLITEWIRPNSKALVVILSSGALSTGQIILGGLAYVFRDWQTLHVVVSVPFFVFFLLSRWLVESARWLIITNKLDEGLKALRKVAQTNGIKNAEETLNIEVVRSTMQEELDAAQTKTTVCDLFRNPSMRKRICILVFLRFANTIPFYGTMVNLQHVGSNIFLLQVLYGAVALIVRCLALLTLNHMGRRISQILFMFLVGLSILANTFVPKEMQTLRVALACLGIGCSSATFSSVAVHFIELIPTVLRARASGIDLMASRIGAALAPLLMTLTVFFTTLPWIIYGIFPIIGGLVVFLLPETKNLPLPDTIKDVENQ
T2 sequence (G3RG24 entry or part of it): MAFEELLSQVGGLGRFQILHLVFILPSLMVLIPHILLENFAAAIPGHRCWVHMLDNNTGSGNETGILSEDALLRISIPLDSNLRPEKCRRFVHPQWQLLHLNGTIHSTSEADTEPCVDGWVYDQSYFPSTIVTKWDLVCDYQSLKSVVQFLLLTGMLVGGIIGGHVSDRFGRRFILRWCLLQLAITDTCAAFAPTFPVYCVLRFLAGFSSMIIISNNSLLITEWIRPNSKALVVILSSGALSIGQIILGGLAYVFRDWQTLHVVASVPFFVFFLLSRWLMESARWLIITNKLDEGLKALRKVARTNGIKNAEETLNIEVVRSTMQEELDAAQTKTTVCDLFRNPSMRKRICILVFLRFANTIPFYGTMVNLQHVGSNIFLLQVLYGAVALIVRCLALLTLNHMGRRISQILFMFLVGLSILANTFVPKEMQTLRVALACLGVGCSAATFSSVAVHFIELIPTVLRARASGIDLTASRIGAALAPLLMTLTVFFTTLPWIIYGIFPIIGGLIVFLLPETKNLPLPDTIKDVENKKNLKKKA

Molecule: C[C@]12CC[C@@H]3c4ccc(OS(=O)(=O)O)cc4CC[C@H]3[C@@H]1CCC2=O [estrone sulfate]
- uptake [1]: squirrel monkey, a New World monkey, preferred estrone sulfate over estradiol-17β- glucuronide

Molecule: C[C@]12CC[C@@H]3c4ccc(O)cc4CC[C@H]3[C@@H]1CC[C@@H]2O[C@@H]1O[C@H](C(=O)O)[C@@H](O)[C@H](O)[C@H]1O [estradiol-17β-glucuronide]
- fold uptake [2]: Significant accumulation of [^3H]-estradiol-17β-glucuronide and [^3H]-androstanediol-3α-glucuronide were observed in cells expressing
- Km [3]: 3.28 ± 2.25 µM
- fold uptake (human SLC22A10 (541 aa)): resulting in substantial accumulation of the substrate, estradiol-17β-glucuronide
- fold uptake (gibbon SLC22A10 (533 aa)): from chimpanzee, orangutan and gibbon accumulated [^3H]-estradiol-17β-glucuronide and [^3H]-folic acid
- fold uptake [4]: from chimpanzee, orangutan and gibbon accumulated [^3H]-estradiol-17β-glucuronide and [^3H]-folic acid

Molecule: Nc1nc2ncc(CNc3ccc(C(=O)N[C@@H](CCC(=O)O)C(=O)O)cc3)nc2c(=O)[nH]1 [folic acid]
- fold uptake (gibbon SLC22A10 (533 aa)): from chimpanzee, orangutan and gibbon accumulated [^3H]-estradiol-17β-glucuronide and [^3H]-folic acid
- fold uptake [4]: from chimpanzee, orangutan and gibbon accumulated [^3H]-estradiol-17β-glucuronide and [^3H]-folic acid

B1: chimpanzee SLC22A10 (552 aa) (Pan troglodytes) (protein)
chain: MAFEELLSQVGGLRRFQILHLVFILPSLMLLIPHILLENFAAAIPGHRCWVHMVDNNTGSGNETGILSEDALLRISIPLDSNLRPEKCRRFVHPQWQLLHLNGTIHSTSEADTEPCVDGWVYDQSYFPSTIVTKWDLVCDYQSLKSVVQFLLLTGMLVGGIIGGHVSDRFGRRFILRWCLLQLAITDTCAAFAPTFPVYCVLRFLAGFSSMIIISNNSLLITEWIRPNSKALVVILSSGALSIGQIILGGLAYVFRDWQTLHVVASVPFFVFFLLSRWLVESARWLIITNKLDEGLKALRKVARTNGIKNAEETLNIEVVRSTMQEELDAAQTKTTVCDLFRNPSMRKRICILVFLRFANTIPFYGTMVNLQHVGSNIFLLQVLYGAVALIVRCLALLTLNHMGRRISQILFMFLVGLSILANTFVPKEMQTLRVALACLGIGCSAATFSSVAVHFIELIPTVLRARASGIDLTASRIGAALAPLLMTLTVFFTTLPWIIYGIFPIIGGLIVFLLPETKNLPLPDTIKDVENQKKISRKRHKNDCYTKVTKF
- Km [5]: 2.16 ± 0.59 µM
